# Measurements published in patent US11034717B2, “Farnesoid X receptor modulators” (Intercept Pharmaceuticals, Inc., priority 2015, dated 2021).
# Read-outs that look alike come from different tables or passages of the source.
# Columns and labels:
# hTGR5 [1] = biological target: T1, hTGR5 (Homo sapiens (Human), UniProt Q8TDU6); experiment: HTR-FRET intracellular cAMP assay in NCI-H716 cells; type: cell-based; settings: for EC50: Table 1, Ref LCA
# hTGR5 [2] = biological target: T1, hTGR5; experiment: Cross species TGR5 activity, CHO cells, human; type: cell-based
# mTGR5 = mTGR5 (Mus musculus (Mouse), UniProt Q80SS6); experiment: Cross species TGR5 activity, CHO cells, mouse; type: cell-based
# Sequence of mTGR5 (Q80SS6 whole entry): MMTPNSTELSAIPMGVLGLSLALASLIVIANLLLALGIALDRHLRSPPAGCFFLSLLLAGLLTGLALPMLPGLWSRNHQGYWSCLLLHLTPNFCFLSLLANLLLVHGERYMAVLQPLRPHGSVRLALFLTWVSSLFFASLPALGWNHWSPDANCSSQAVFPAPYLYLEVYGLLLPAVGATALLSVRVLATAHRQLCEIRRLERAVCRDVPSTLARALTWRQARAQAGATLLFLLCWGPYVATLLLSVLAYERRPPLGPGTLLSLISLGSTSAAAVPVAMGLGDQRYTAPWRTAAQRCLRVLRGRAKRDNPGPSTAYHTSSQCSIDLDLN
# rTGR5 = rTGR5 (Rattus norvegicus (Rat), UniProt Q80T02); experiment: Cross species TGR5 activity, CHO cells, rat; type: cell-based
# Sequence of rTGR5 (Q80T02 whole entry): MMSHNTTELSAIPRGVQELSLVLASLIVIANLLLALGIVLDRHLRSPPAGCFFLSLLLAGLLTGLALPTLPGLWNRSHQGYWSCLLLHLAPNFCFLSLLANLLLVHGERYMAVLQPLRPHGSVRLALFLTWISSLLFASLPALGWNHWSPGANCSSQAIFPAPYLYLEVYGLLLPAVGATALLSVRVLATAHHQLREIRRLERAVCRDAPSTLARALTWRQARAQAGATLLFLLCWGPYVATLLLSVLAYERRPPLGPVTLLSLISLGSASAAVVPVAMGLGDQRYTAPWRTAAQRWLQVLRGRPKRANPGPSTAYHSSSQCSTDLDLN
# dTGR5 = experiment: Cross species TGR5 activity, CHO cells, dog; type: cell-based
# [3] = system: nuclear receptors LXRP, PXR, CAR, PPARα, PPARγ, RAR, RARα, VDR, TR, PR, RXR, GR, and ER; experiment: Nuclear receptor selectivity profile (AlphaScreen); type: biochemical; settings: for Activation of nuclear receptor panel, agonist mode: dose response to 200 μM; for Activity on nuclear receptor panel, antagonist mode: fixed concentration at 10 μM
# Procedure: Using the AlphaScreen assay, the selectivity of a compound of the invention against the following nuclear receptors involved in the metabolic pathways can be evaluated: LXRP, PXR, CAR, PPARα, PPARα, PPARγ, RAR, RARα, VDR, TR, PR, RXR, GR, and ER.
# Compounds L1, 3, 5, 6 and 7 were tested against the panel of available nuclear receptor in both agonist and antagonist mode.
# [4] = system: FXR target genes: BSEP, SHP, OSTβ and CYP7A1; experiment: FXR target gene panel, quantitative RT-PCR in HepG2 cells; type: cell-based; settings: stimulation for 18 hours
# Procedure: To evaluate the capacity of a compound of the invention to modulate FXR target genes, quantitative RT-PCR assays are performed. HepG2 cells are selected as a relevant cell line to determine whether a compound of the invention can regulate the endogenous FXR genetic network. The ability of a compound of the invention to induce FXR target genes is assessed by isolating total RNA from cells treated overnight with 1 μM of compounds A, B, and a compound of the invention.
# FXR regulates the expression of several target genes involved in BA homeostasis. Briefly, FXR plays a central role in several metabolic pathways, including i.e., lipid metabolism, bile-acids metabolism, and carbohydrate metabolism. Regarding gene expression profiling, the genes encoding proteins involved in lipid metabolism include, e.g., APOCII, APOE, APOAI, SREBP-1C, VLDL-R, PLTP, and LPL; the genes encoding proteins involved in bile-acids metabolism include, e.g., OSTα/β, BSEP, MRP2, SHP, CYP7A1, FGF19, SULT2A1, and UGT2B4; and the genes encoding proteins involved in carbohydrate metabolism include, e.g., PGCla, PEPCK, and GLUT2. FXR target genes: BSEP, SHP, OSTβ and CYP7A1 were evaluated following stimulation of Compounds 3, 5, 6, and 7 on HepG2 cells for 18 hours. Compound L1 was used as a control.
# HepG2 cells [5] = experiment: In-vitro cytotoxicity, ATP content; type: cell-based
# Description: To evaluate in-vitro cytotoxicity of a compound of the invention, two different assay methods are employed. The assays evaluate cell viability by measuring ATP levels and cytotoxicity by measuring LDH release. […] It has been called the “molecular unit of currency” when it comes to intracellular energy transfer.
# (§1) An additional method to determine the viability of cells is to detect the integrity of the membrane that defines the cellular compartmentalization. Measuring the leakage of components out of the cytoplasm, in damaged cell membranes, indicates loss of membrane integrity, and LDH release is the method used to determine common toxicity in cells. HepG2 cells are treated with a compound of the invention, and serial dilutions are performed. LCA dilutions are added to the plated cells as assay controls together with no-cell and untreated cells. The assay is performed in triplicate for each test compound concentration.
# CYP1A2 = CYP1A2 (Homo sapiens (Human), UniProt P05177); experiment: CYP450 inhibition, fluorescent substrate, recombinant baculosomes; type: in vitro ADME
# Sequence of CYP1A2 (P05177 whole entry, canonical isoform): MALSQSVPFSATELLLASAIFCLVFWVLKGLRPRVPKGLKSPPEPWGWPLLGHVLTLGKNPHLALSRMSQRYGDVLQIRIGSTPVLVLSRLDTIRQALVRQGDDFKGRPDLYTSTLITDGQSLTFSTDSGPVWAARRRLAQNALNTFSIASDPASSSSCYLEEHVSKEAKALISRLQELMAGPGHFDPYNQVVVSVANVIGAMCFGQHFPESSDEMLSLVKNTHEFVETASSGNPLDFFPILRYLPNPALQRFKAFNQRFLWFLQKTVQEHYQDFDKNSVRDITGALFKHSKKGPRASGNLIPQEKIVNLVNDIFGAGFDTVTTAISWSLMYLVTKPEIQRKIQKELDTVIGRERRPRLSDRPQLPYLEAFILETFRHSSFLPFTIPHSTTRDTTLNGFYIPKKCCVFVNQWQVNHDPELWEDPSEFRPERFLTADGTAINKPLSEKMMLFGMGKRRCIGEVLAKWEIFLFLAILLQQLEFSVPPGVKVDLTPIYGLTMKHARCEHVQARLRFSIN
# Procedure: (§2) To evaluate the potential of a compound of the invention for drug-drug interactions, the six main CYP450 isoforms (CYP1A2, CYP2C9, CYP2C19, CYP2D6, CYP2E1, CYP3A4) are investigated (Obach, et al., J Pharmacol. Exp. Ther, 2006, 316, 336-348).
# (§3) To determine interaction between a compound of the invention and cytochrome P450 enzymes, the compound of the invention is analyzed by its capacity to inhibit (or not) the production of a fluorescent signal, using recombinant CYP450 proteins (baculosomes; Invitrogen), substrates and inhibitors (Bidstrup, et al., Br J Clin. Pharmacol, 2003, 56, 305-14). As a positive control, a selective inhibitor for each CYP450 isoform is tested in the same plate.
# CYP2C19 = CYP2C19 (Homo sapiens (Human), UniProt P33261); experiment: as above; type: in vitro ADME
# Sequence of CYP2C19 (P33261 whole entry): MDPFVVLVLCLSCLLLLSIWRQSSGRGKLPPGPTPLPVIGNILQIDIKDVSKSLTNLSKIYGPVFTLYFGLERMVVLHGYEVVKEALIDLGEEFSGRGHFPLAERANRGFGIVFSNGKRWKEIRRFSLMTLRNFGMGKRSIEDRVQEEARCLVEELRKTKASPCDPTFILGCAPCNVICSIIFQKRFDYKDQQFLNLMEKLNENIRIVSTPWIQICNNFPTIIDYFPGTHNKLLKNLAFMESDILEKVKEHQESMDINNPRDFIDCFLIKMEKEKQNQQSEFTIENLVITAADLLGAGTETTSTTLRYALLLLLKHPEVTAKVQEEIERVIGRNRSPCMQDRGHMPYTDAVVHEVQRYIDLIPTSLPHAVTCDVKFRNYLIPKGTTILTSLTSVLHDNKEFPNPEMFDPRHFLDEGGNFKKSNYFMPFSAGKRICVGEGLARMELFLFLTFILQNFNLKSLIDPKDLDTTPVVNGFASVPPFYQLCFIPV
# Procedure: as §2, §3
# CYP2C9 = CYP2C9 (Homo sapiens (Human), UniProt P11712); experiment: as above; type: in vitro ADME
# Sequence of CYP2C9 (P11712 whole entry): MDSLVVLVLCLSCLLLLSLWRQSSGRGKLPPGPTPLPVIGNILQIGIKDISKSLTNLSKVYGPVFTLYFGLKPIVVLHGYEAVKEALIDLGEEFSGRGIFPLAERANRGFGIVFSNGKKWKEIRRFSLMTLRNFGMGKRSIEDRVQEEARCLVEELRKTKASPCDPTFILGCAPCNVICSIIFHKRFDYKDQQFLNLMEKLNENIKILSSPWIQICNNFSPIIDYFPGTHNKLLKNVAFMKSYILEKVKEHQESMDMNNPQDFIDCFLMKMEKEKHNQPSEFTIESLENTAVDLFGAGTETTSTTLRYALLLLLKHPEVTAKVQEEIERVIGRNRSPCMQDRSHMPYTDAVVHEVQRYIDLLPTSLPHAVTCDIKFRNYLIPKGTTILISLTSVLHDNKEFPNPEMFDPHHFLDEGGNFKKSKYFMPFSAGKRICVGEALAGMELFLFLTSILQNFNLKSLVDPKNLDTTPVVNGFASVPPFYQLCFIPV
# Procedure: as §2, §3
# CYP2D6 = CYP2D6 (Homo sapiens (Human), UniProt P10635); experiment: as above; type: in vitro ADME
# Sequence of CYP2D6 (P10635 whole entry): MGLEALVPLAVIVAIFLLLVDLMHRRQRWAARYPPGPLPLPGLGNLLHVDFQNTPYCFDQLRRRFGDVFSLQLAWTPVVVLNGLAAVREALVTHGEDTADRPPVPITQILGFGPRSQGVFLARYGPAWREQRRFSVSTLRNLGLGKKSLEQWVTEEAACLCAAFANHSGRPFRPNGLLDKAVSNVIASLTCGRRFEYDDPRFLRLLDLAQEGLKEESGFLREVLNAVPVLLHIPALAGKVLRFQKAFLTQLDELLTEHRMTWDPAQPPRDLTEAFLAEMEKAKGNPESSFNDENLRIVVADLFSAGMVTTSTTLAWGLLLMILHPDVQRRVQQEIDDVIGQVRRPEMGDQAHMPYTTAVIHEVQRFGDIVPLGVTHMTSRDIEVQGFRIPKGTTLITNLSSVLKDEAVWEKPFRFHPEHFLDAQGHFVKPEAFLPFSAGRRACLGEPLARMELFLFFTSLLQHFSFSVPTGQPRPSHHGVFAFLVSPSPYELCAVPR
# Procedure: as §2, §3
# CYP2E1 = CYP2E1 (Homo sapiens (Human), UniProt P05181); experiment: as above; type: in vitro ADME
# Sequence of CYP2E1 (P05181 whole entry): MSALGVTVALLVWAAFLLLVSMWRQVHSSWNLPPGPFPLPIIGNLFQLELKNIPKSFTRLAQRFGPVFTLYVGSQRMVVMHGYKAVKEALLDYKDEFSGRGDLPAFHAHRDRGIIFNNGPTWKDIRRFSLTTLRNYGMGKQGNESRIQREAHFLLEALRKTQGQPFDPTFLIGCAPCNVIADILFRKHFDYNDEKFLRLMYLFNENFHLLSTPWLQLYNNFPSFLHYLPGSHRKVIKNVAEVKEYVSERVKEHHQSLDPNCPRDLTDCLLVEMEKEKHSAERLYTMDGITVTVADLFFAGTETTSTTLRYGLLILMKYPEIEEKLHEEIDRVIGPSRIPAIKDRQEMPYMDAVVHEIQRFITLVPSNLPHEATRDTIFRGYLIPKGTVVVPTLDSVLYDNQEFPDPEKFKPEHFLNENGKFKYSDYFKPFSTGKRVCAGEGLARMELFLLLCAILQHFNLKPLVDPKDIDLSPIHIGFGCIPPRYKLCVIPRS
# Procedure: as §2, §3
# CYP3A4 = CYP3A4 (Homo sapiens (Human), UniProt P08684); experiment: as above; type: in vitro ADME
# Procedure: as §2, §3
# hERG potassium channel = hERG potassium channel (Homo sapiens (Human), UniProt Q12809); experiment: biochemical
# Sequence of hERG potassium channel (Q12809 whole entry): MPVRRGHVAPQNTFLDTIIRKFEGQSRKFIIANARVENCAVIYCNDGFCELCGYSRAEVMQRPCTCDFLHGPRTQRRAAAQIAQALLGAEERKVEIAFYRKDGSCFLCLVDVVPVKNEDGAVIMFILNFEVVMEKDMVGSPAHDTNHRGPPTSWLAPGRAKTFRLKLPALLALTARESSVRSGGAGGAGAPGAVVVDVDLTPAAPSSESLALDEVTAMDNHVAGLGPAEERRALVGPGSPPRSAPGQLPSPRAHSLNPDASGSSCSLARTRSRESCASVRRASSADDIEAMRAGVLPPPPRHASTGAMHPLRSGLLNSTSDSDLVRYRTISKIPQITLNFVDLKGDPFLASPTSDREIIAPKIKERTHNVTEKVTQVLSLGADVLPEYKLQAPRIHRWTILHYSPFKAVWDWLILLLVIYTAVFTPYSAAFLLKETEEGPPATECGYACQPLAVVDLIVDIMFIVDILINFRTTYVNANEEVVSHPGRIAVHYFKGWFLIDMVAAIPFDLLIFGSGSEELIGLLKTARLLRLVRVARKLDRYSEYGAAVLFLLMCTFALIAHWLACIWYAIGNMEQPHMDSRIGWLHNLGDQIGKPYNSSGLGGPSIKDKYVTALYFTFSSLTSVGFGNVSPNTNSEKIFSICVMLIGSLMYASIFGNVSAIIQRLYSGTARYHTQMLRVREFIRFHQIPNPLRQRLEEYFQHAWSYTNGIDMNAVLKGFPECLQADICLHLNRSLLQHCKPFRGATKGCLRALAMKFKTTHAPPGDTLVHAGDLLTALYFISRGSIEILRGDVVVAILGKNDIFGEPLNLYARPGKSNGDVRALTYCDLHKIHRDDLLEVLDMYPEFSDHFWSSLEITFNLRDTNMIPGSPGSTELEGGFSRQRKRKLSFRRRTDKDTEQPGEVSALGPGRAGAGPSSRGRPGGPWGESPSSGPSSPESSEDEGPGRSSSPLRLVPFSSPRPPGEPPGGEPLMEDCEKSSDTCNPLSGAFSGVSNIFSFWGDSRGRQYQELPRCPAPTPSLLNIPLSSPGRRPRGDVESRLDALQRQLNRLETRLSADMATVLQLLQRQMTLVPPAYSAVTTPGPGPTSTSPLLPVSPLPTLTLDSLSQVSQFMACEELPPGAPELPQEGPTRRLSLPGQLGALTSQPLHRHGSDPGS
# Description: The assay is based on the assumption that the hERG potassium channel activity contributes to the resting membrane potential in permanently transfected cells, and thus a block of hERG channels should result in a depolarization of the cell membrane. The assay is designed to identify potential hERG channel blockers by producing data that accurately correlates with patch-clamp electrophysiology studies.
# Membrane preparations from Chinese hamster ovary cells stably transfected with hERG potassium channel are used to evaluate the potential inhibitory effect of a compound of the invention on this channel using the Predictor™ fluorescence polarization assay. Reduction of membrane polarization as a result of inhibition of the hERG potassium channel is directly correlated with a reduction of the fluorescence polarization (FP).
# An assay window more than 100 mP (millipolarization) is considered good. The non-linear regression curves are obtained by GraphPad Prism (GraphPad Software Inc.) analysis, to calculate the IC50 values.
# [6] = Critical micellar concentration; type: physicochemical; settings: determined in […] NaCl water solution
# Procedure: (§4) Physiochemical properties of a compound of the invention such as water solubility, critical micellar concentration, surface tension, and LogPA were determined using methods known in the art.
# [7] = 1-octanol-water partition coefficient of ionized species; type: physicochemical
# Procedure: as §4
# HepG2 cells [8] = experiment: In-vitro cytotoxicity, membrane integrity (LDH release); type: cell-based
# Description: To evaluate in-vitro cytotoxicity of a compound of the invention, two different assay methods are employed. The assays evaluate cell viability by measuring ATP levels and cytotoxicity by measuring LDH release. Adenosine Triphosphate (ATP) nucleotide represents the source of energy at the basic molecular level, as it is a multifunctional molecule that is used in every cell as a coenzyme and is an integral part of the mitochondrial DNA (Kangas, et al., Medical Biology, 1984, 62, 338-343; Crouch, et al., J Immunol. Methods, 1993, 160, 81-88; and Petty, et al., J Biolumin. Chemilumin. 1995, 10, 29-34). It has been called the “molecular unit of currency” when it comes to intracellular energy transfer.
# as §1
# [9] = read-out: CYP3A4 (Green substrate) IC50, Green substrate
# [10] = Blue substrate, read-out: CYP3A4 (Blue substrate) IC50
# [11] = Green substrate, read-out: CYP3A4 (Green substrate) IC50
# T1 sequence (Q8TDU6 whole entry): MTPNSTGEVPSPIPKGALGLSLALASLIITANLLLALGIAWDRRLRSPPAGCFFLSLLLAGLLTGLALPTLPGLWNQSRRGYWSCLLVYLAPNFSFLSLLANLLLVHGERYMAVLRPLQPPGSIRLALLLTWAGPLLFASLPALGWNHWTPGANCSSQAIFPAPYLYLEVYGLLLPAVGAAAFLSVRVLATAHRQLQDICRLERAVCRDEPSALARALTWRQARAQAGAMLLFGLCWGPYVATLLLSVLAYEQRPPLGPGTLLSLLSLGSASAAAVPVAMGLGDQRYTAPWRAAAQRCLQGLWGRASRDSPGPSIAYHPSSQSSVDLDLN
Structure (SMILES),EC50 (hTGR5 [1]),EC50 (hTGR5 [2]),EC50 (mTGR5),rTGR5 CHO EC50 (rTGR5),dTGR5 CHO EC50 (dTGR5),"Activation of nuclear receptor panel, agonist mode [3]","Activity on nuclear receptor panel, antagonist mode [3]","Modulation of FXR target genes BSEP, SHP, OSTβ and CYP7A1 [4]",ATP Content EC50 (HepG2 cells [5]; Table 5A),IC50 (CYP1A2),IC50 (CYP2C19),IC50 (CYP2C9),IC50 (CYP2D6),IC50 (CYP2E1),IC50 (CYP3A4),IC50 (CYP3A4; [9]),IC50 (hERG potassium channel),hERG potassium channel inhibition (in words) (hERG potassium channel; Table 7 footnote),CMC: Critical Micellar Concentration [6],LogPA−: 1-octanol-water partition coefficient as ionized species [7],other results
"CC[C@H]1[C@@H](O)C2C3CC[C@H]([C@H](C)CCCOS(=O)(=O)[O-])[C@@]3(C)C[C@H](O)C2[C@@]2(C)CC[C@@H](O)C[C@@H]12.[Na+] (stereo partly drawn) [Compound 5, 3α,7α,11β-Trihydroxy-6α-ethyl-5β-cholan-24-O-sulphate, sodium salt]",78 ± 1 µM,3 ± 1 µM,4 ± 1 µM,No activity,No activity,Neither compound activated any of the receptors,Neither compound activated any of the receptors,significantly bind to FXR in hepatic cells modulating FXR target genes,No toxicity,> 10 µM,> 10 µM,> 10 µM,> 10 µM,> 10 µM,> 10 µM,> 10 µM,> 100 µM,"Compounds L1, 3, 5, 6 and 7 did not inhibit hERG potassium channel.",8.5 mM,0.61,
"CC[C@H]1[C@@H](O)C2C3CC[C@H]([C@H](C)CCOS(=O)(=O)[O-])[C@@]3(C)C[C@H](O)C2[C@@]2(C)CC[C@@H](O)C[C@@H]12.[Na+] (stereo partly drawn) [Compound 3, 3α,7α,11β,23-tetrahydroxy-6α-ethyl-24-nor-5β-cholan-23-O-sulphate sodium salt]",83 ± 7 µM,5 ± 1 µM,3 ± 0.5 µM,No activity,No activity,Neither compound activated any of the receptors,Neither compound activated any of the receptors,significantly bind to FXR in hepatic cells modulating FXR target genes,No toxicity,> 10 µM,> 10 µM,> 10 µM,> 10 µM,> 10 µM,> 10 µM,> 10 µM,> 100 µM,"Compounds L1, 3, 5, 6 and 7 did not inhibit hERG potassium channel.",12.5 mM,0.12,
"CC[C@H]1[C@@H](O)C2C3CC[C@H]([C@H](C)CCC(=O)O)[C@@]3(C)C[C@H](O)C2[C@@]2(C)CC[C@@H](O)C[C@@H]12 (some centres unmarked) [Compound L1, reference compound]",,,,No activity,No activity,Neither compound activated any of the receptors,Neither compound activated any of the receptors,,,> 10 µM,,,,,,,,"Compounds L1, 3, 5, 6 and 7 did not inhibit hERG potassium channel.",,0.84,"mTGR5 CHO EC50 (mTGR5): No activity; ATP Content EC50 (HepG2 cells [5]; Table 5B, HepG2): No toxicity; Membrane Integrity (LDH measure) LC50 (HepG2 cells [8]): No toxicity; IC50 (CYP2C19; read-out: CYP2C19 IC50): > 10 µM; IC50 (CYP2C9; read-out: CYP2C9 IC50): > 10 µM; IC50 (CYP2D6; read-out: CYP2D6 IC50): > 10 µM; IC50 (CYP2E1; read-out: CYP2E1 IC50): > 10 µM; IC50 (CYP3A4; [10]): > 10 µM; IC50 (CYP3A4; [11]): > 10 µM; IC50 (hERG potassium channel; read-out: hERG inhibition IC50, Table 7): > 100 µM"
"CC[C@H]1[C@@H](O)C2C3CC[C@H]([C@H](C)CCc4nc(=O)o[nH]4)[C@@]3(C)C[C@H](O)C2[C@@]2(C)CC[C@@H](O)C[C@@H]12 (stereo partly drawn) [Compound 7, 3α,7α,11β-Trihydroxy-6α-ethyl-23-(1,2,4-oxadiazol-5-oxo-3-yl)-24-nor-5β-cholane]",,,9.5 ± 2 µM,No activity,,Neither compound activated any of the receptors,Neither compound activated any of the receptors,significantly bind to FXR in hepatic cells modulating FXR target genes,,> 10 µM,,,,,,,> 100 µM,,,2.0,"HTR-FRET (cAMP) Human TGR5 EC50 (hTGR5 [1]; Table 2): No activity; hTGR5 CHO EC50 (hTGR5 [2]): No activity; EC50 (dTGR5): 7.6 ± 0.01 µM; ATP Content EC50 (HepG2 cells [5]; Table 5B, HepG2): No toxicity; Membrane Integrity (LDH measure) LC50 (HepG2 cells [8]): No toxicity; IC50 (CYP2C19; read-out: CYP2C19 IC50): > 10 µM; IC50 (CYP2C9; read-out: CYP2C9 IC50): > 10 µM; IC50 (CYP2D6; read-out: CYP2D6 IC50): > 10 µM; IC50 (CYP2E1; read-out: CYP2E1 IC50): > 10 µM; IC50 (CYP3A4; [10]): > 10 µM; IC50 (CYP3A4; [11]): > 10 µM; hERG potassium channel inhibition (in words) (hERG potassium channel): Compounds L1, 3, 5, 6 and 7 did not inhibit hERG potassium channel."
